Results from patent US20180118747A1, “METHOD OF ISOLATING THEACRINE AND COMPOSITION COMPRISING THEACRINE” (ThermoLife International, LLC, priority 2017, published 2018).

Experiment: Effects of ingested theacrine versus fused theacrine as reported by human subjects
Assay type: in vivo
Settings: oral ingestion
Description: Typically, theacrine's effects in human subjects start after 30 minutes of ingestion and last 6-8 hours.

## Cn1c(=O)c2c(n(C)c1=O)n(C)c(=O)n2C [theacrine, 1,3,7,9-tetramethyluric acid]
  start of theacrine's effects after ingestion: 30 min
Same amount of theacrine in both forms
  duration of theacrine's effects: 6 to 8 h
subject-reported
  "crash" felt when the theacrine level falls: feels a “crash.”
